Measured values: article PMC8111499, “GW117: A novel serotonin (5‐HT2C) receptor antagonist and melatonin (MT1/MT2) receptor agonist with potential antidepressant‐like activity in rodents” (CNS Neuroscience & Therapeutics, 2021)

Experiments:
[1] = tested on: rats; experiment: Locomotor activity in rats; assay type: in vivo; conditions: for Locomotor activity, Crossing number / Locomotor activity, Rearing number: Rats, mean ± S.E.M.
Protocol: (§1) In order to confirm whether GW117 has an antidepressant activity, we used spontaneous activities in mice and rats to determine whether GW117 affects the central system. 64 ICR mice were randomly allocation to five therapy groups ([…]): control group, 5 mg/kg GW117, 10 mg/kg GW117, 20 mg/kg GW117, and 40 mg/kg GW117. All rats and mice received one administration (p.o.). After sixty minutes of gavage administration, each mouse or rat was located in the corner of an open field chamber (36 × 29 × 23 cm for mice; 76 × 76 × 46 cm for rats) to adapt to 5 min. The numbers of crossings and rearings were recorded during the subsequent 5 min.

[2] = tested on: mice; experiment: Locomotor activity in mice; assay type: in vivo, ICR mice; conditions: for Locomotor activity, Crossing number / Locomotor activity, Rearing number: Mice, mean ± S.E.M.
Protocol: as §1

[3] = biological target: T1, 5‐HT2C receptor (Rattus norvegicus, UniProt P08909); experiment: 5‐HT2C receptor binding assay ([3H]‐LSD competition); conditions: mean ± SEM, three independent experiments
T1 construct: 5‐HT2C receptor membrane protein was extracted from rat hippocampus and a stably transfected HEK293 cell line; from tissue; host or cells: rat hippocampus
T1 sequence (P08909 33-460): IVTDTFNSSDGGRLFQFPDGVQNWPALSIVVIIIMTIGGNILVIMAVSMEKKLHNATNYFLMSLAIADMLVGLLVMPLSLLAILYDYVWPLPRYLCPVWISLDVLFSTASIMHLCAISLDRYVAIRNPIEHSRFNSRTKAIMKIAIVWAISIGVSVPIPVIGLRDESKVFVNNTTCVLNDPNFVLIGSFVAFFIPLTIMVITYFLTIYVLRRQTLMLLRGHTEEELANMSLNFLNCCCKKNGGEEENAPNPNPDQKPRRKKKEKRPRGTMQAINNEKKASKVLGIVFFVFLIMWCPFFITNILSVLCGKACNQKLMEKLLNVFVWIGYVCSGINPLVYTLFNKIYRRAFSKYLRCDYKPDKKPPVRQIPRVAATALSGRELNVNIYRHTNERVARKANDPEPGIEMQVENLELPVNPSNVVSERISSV
Protocol: Hippocampal membrane preparations were obtained using previously described methods. ^24 , ^25 , ^26 Briefly, rats were decapitated and their brains were rapidly removed. Next, the hippocampus was dissected and subsequently homogenized in 40 volumes of ice‐cold buffer (50 mM Tris‐HCl Buffer, pH 7.4) and then centrifuged at 40,000 × g at 4°C for 10 min. The particles were re‐suspended and centrifuged again. In order to remove endogenous monoamines, the final suspension was incubated at 37°C for 20 min and then centrifuged as usual. The final pellets were frozen at −80°C at once for up to 1 week.
Human MT1/MT2 receptor membrane proteins were obtained from Perkin‐Elmer (ES‐620 [MT1] and ES‐621 [MT2]). The stably transfected 5‐HT2C receptor HEK293 cell line was prepared using a nucleus‐cytoplasm‐membrane preparation kit (Applagin Technologies Inc.). Briefly, cells were harvested at 4°C, 110 00 × g and centrifugation for 5 min. Homogenize pellets in the assay buffer (50 mM Tris‐HCl buffer containing 120 mM NaCl and 5 mM KCl, pH 7.4) and then centrifuged twice at 4°C, 36,000 × g for 15 min. […]
Receptor membrane protein, 5‐HT2C (50 μl), was added to all the tubes. Non‐specific binding was determined by the presence of unlabeled 10 μM 5‐HT and pre‐reacted for 30 min. […] Finally, 1 ml of scintillation fluid was added and the radioactive intensity measured by liquid scintillation counting.

[4] = biological target: T2, MT2 receptor (Homo sapiens, UniProt P49286); experiment: MT2 receptor binding assay ([3H]‐melatonin competition); conditions: mean ± SEM, three independent experiments
T2 construct: purchased Perkin‐Elmer ES‐621
T2 sequence (P49286 1-362): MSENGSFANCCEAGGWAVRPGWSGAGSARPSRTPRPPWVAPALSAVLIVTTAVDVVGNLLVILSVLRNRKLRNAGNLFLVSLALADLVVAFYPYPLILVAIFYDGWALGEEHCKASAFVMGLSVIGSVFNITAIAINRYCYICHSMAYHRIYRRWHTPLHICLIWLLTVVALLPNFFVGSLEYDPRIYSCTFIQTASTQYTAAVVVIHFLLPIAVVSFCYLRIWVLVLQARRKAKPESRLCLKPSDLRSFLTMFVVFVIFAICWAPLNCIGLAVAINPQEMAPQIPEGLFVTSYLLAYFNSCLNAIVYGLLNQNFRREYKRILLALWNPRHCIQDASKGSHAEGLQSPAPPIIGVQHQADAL
Protocol: The stably transfected 5‐HT2C receptor HEK293 cell line was prepared using a nucleus‐cytoplasm‐membrane preparation kit (Applagin Technologies Inc.). Briefly, cells were harvested at 4°C, 110 00 × g and centrifugation for 5 min. Homogenize pellets in the assay buffer (50 mM Tris‐HCl buffer containing 120 mM NaCl and 5 mM KCl, pH 7.4) and then centrifuged twice at 4°C, 36,000 × g for 15 min. Finally, pellets were re‐suspended in assay buffer and stored it at −80°C until it is used for in vitro experiments.
Receptor membrane protein, MT1 or MT2 (10 μl), was added to all pipes. Non‐specific binding was determined by the presence of unlabeled 10 µM melatonin and pre‐reacted for 30 min. In test tubes, 30 μl of test drugs (MT1: concentration, 10^−4–10^−10 M; MT2: concentration, 10^−4–10^−11 M) was added. Additionally, 40 μl [^3H]‐melatonin was added to all tubes. The volume in all reaction tubes was made up to 300 μl with Tris‐HCl buffer (50 mM, pH 7.4). Reactions were performed at 25°C for 1 h. The mixture was then spotted onto a type 49 glass fiber filter paper, suction filtered under vacuum, rinsed three times with 2 ml ice‐cold Tris‐HCl buffer (50 mM, pH 7.4), and dried by suction. […] Finally, 1 ml of scintillation fluid was added and then the radioactive intensity measured by liquid scintillation counting.

Ki [3]: 0.32 ± 0.08 nM
Ki [4]: 54 ± 7.31 nM
Structure (SMILES): [2H]C([2H])([2H])Oc1cc2c(CCNC(C)=O)cccc2cc1Cl [GW117]
Locomotor activity, Crossing number ([1]; 5 mg/kg p.o.): 70.3 ± 5.1
Locomotor activity, Rearing number ([1]; 5 mg/kg p.o.): 14.2 ± 1.4
Locomotor activity, Crossing number ([1]; 10 mg/kg p.o.): 71.3 ± 6.8
Locomotor activity, Rearing number ([1]; 10 mg/kg p.o.): 14.9 ± 1.5
Locomotor activity, Crossing number ([1]; 20 mg/kg p.o.): 60.9 ± 4.4
Locomotor activity, Rearing number ([1]; 20 mg/kg p.o.): 13.8 ± 1.3
Locomotor activity, Crossing number ([1]; 40 mg/kg p.o.): 63.5 ± 4.6
Locomotor activity, Rearing number ([1]; 40 mg/kg p.o.): 12.8 ± 1.3
effect on number of crossings and rearings in the spontaneous activity test ([1]; rats, 5, 10, 20, or 40 mg/kg by gavage): had no effect
Locomotor activity, Crossing number ([2]; 5 mg/kg p.o.): 86.8 ± 4.4
Locomotor activity, Rearing number ([2]; 5 mg/kg p.o.): 22.7 ± 1.8
Locomotor activity, Crossing number ([2]; 10 mg/kg p.o.): 80.1 ± 4.8
Locomotor activity, Rearing number ([2]; 10 mg/kg p.o.): 22.6 ± 2.1
Locomotor activity, Rearing number ([2]; 20 mg/kg p.o.): 20.7 ± 1.5
Locomotor activity, Crossing number ([2]; 40 mg/kg p.o.): 86.3 ± 4.4
Locomotor activity, Rearing number ([2]; 40 mg/kg p.o.): 21.3 ± 1.4
effect on number of crossings and rearings in the spontaneous activity test ([2]; mice, 5, 10, 20, or 40 mg/kg by gavage): had no effect
